Reference: article PMC5365251, “Biophysical assay for tethered signaling reactions reveals tether-controlled activity for the phosphatase SHP-1” (Science Advances, 2017)

Columns and labels:
PEG28-ITIM [1] = assay: SPR of SHP-1 injected over immobilised PEG28-ITIM: binding constants (MPDPDE fit); set-up: species or system mouse; settings: tethered SPR assay with active PTP domain
Protocol: (§1) A construct expressing murine SHP-1 with an N-terminal 6× His tag was provided by M. H. Brown. Mutation of the SH2 domains was performed using a quick-change strategy. The mutations introduced were R30K and R33E for the N-terminal SH2 domain mutant and R136K for the C-terminal SH2 domain mutant previously shown to result in loss of binding ([6]). All peptides were ordered from PeptideSynthetics and were certified to be >95% pure. Peptides sequences were derived from the membrane-proximal ITIM sequence of mouse LAIR-1 receptor.
(§2) Experiments were performed on a Biacore 3000 instrument (GE Healthcare Life Sciences). All experiments were performed at 10°C and with a buffer flow rate of 10 μl/min. The buffer used was Hepes-buffered saline (HBS-EP; GE Healthcare Life Sciences), which contained 10 mM Hepes (pH 7.4), 150 mM NaCl, 3 mM EDTA, and 0.005% Surfactant P20.
(§3) A CM5 sensorchip was coupled with streptavidin to near saturation (typically between 4000 and 7000 RU) using the amine coupling kit (GE Healthcare Life Sciences) as described previously ([42]). After streptavidin was coupled, biotinylated peptides were injected to give the indicated concentrations in experimental flow cells, and excess biotin-binding sites were blocked with biotin in HBS-EP. The molar ratio of peptide to streptavidin was kept below 1:1 to ensure that peptide immobilization was random and not clustered on the tetravalent streptavidin molecules. Reference flow cells were treated with buffer and then blocked with biotin; pilot experiments using unphosphorylated control peptides in reference flow cells were indistinguishable from buffer-treated reference flow cells when injected with SHP-1. The chip surface was then conditioned with 5 × 5-min injections of HBS-EP. SHP-1 protein in HBS-EP with 1 mM dithiothreitol was then injected over reference and experimental flow cells in series for 5 min at the indicated concentrations. All SPR data were converted from the reference-subtracted data (in resonance units) to fraction bound by dividing the resonance units by the theoretical maximum resonance units expected if the experimental flow cell was saturated with bound SHP-1.
To determine the concentration of peptide in the assays, we first needed a conversion factor between the resonance units and the mass of peptide at the chip surface. We determined this conversion factor by injecting four concentrations of SHP-1 over a control flow cell on a CM5 chip and plotting the mass of SHP-1 injected against the raw resonance unit change. We repeated this on seven flow cells across four sensor chips to get an average slope of 149 ± 15 RU per g/liter (±SEM). […]

PEG28-ITIM [2] = assay: SPR of SHP-1 injected over immobilised PEG28-ITIM: tethered/solution catalysis and reach (MPDPDE fit); assay type: biochemical, mouse
Protocol: as §1, §2, §3
To determine the concentration of peptide in the assays, we first needed a conversion factor between the resonance units and the mass of peptide at the chip surface. We determined this conversion factor by injecting four concentrations of SHP-1 over a control flow cell on a CM5 chip and plotting the mass of SHP-1 injected against the raw resonance unit change. We repeated this on seven flow cells across four sensor chips to get an average slope of 149 ± 15 RU per g/liter (±SEM). This constant, together with the molecular weight of the peptide, was used to convert between the resonance units of peptides immobilized and the molar concentration at the chip surface. For example, 48.5 RU of PEG28-ITIM (molecular weight, 3221) was immobilized to obtain [peptide] = 97.1 μM (Fig. 2A).
From the MPDPDE model–simulated SPR traces, one would predict that the kcat*(solution) (fig. S4, G and H) and L (fig. S4F) are likely to be very sensitive to small systematic errors in the SPR trace at longer time scales. Nonspecific binding and baseline drift are two well-known sources of such systemic errors that can produce artifacts at long time scales (see fig. S6A for examples). To exclude data affected by these artifacts, we propose a simple quality control check that greatly improves the accuracy of estimating L, kcat*(tethered) , and kcat*(solution) . As a measure of the signal-to-noise ratio at long time points, we took the resonance units 20 s after the injection was completed (noise) and divided it by the resonance units 20 s before the injection finished (signal). […] Data that had evidence of significant artifact were excluded from the study based on this criterion (red data points in fig. S6B). […]

SHP-1: murine SHP-1 tyrosine phosphatase with an N-terminal 6× His tag, expressed in E. coli
bivalent reactions (in words) (PEG28-ITIM [1]): no evidence for bivalent reactions
L (reach parameter), SH2 variants (PEG28-ITIM [2]; SHP-1 variants over PEG28-ITIM, average fit Fig. 6B: WT n = 15, N-SH2 mutant n = 3, C-SH2 mutant n = 9): 23.0 nm
share of time spent in open active conformation in solution (PEG28-ITIM [2]; assuming complete open transition on SH2 binding, kcat*(solution) = 0.05 kcat*(tethered)): 5%
k*cat (tethered) (PEG28-ITIM [2]; average of all experiments Fig. 4C, n = 15, SEM printed ± 1.3 × 10^-2, wild-type SHP-1, PEG28-ITIM, 10°C, HBS-EP pH 7.4): 0.0118 µM⁻¹ s⁻¹
L (reach parameter) (PEG28-ITIM [2]; average of all experiments Fig. 4C, n = 15, SEM ± 0.46, wild-type SHP-1, PEG28-ITIM, 10°C, HBS-EP pH 7.4): 23 nm
k*cat (solution) (PEG28-ITIM [2]; average of all experiments Fig. 4C, n = 15, SEM ± 1.15 × 10^-4, wild-type SHP-1, PEG28-ITIM, 10°C, HBS-EP pH 7.4): 0.000603 µM⁻¹ s⁻¹
increase in tethered over solution catalytic rate (allosteric activation) (PEG28-ITIM [2]; wild-type SHP-1, PEG28-ITIM, kcat*(tethered) versus kcat*(solution)): 20 fold
